Key:
Assay in all cases: MIC by microdilution method, non-Helicobacter pylori bacteria
Type in all cases: cell-based
Design in all cases: key: +: Bacterial growth; −: No bacterial growth
Settings in all cases: 72 h
[1] = tested on: Actinobacillus actinomycetemcomitans
Procedure: (§1) 2.2 Detection of minimum inhibitory concentration (MIC, 100 µL system) of zinc linolenate for non-Helicobacter pylori bacteria by microdilution method
(§2) (1) Zinc linolenate (2 mg/mL) is prepared.
(§3) (3) Bacterial solution preparation: the non-Helicobacter pylori grown in a log phase on a solid plate is taken to make a bacterial suspension with a BHI culture medium, the absorbance (OD600) is adjusted to 0.3 (1×10^8 CFU/mL), and the bacterial suspension is diluted 100 times to 1×10^6 CFU/mL for use.
(§4) (4) Inoculation of bacterial solution: 10 μL of bacterial solution above is taken and added to the 1-8th wells (the concentration of the bacterial solution per well is about 1.0×10^5 CFU/mL). Culture is performed for 72 h to judge the result. The drug concentrations of the first-seventh wells are 128, 64, 32, 16, 8, 4, and 2 μg/mL, respectively.
(§5) The experiment only makes sense when the bacteria obviously grow in the 8th well, i.e. the positive control well (without antibiotics). When a single drift occurs in the microdilution method, the maximum drug concentration that inhibits bacterial growth should be recorded. If there are multiple drifts, the results should not be reported and the experiment should be repeated. The experiment is repeated 3 times for each drug.

[2] = tested on: Enterobacter cloacae (ATCC13047)
Procedure: as §1, §2, §3, §4, §5

[3] = tested on: Mycobacterium smegmatis (MC^2 155)
Procedure: as §1, §2, §3, §4, §5

[4] = tested on: Enterococcus faecalis (ATCC19434)
Procedure: as §1, §2, §3, §4, §5

[5] = tested on: Escherichia coli (MG1655)
Procedure: as §1, §2, §3, §4, §5

Listeria = tested on: Listeria
Procedure: as §1, §2, §3, §4, §5

Morganella morganii = tested on: Morganella morganii
Procedure: as §1, §2, §3, §4, §5

[6] = tested on: Acinetobacter baumannii (ATCC19606)
Procedure: as §1, §2, §3, §4, §5

[7] = tested on: Neisseria gonorrhoeae (ATCC19424)
Procedure: as §1, §2, §3, §4, §5

[8] = tested on: Campylobacter jejuni (NCTC11168)
Procedure: as §1, §2, §3, §4, §5

[9] = tested on: Pseudomonas aeruginosa (PA01)
Procedure: as §1, §2, §3, §4, §5

[10] = tested on: Stenotrophomonas maltophilia
Procedure: as §1, §2, §3, §4, §5

[11] = tested on: Streptococcus pneumoniae (ATCC49619)
Procedure: as §1, §2, §3, §4, §5

Bacillus subtilis (168) = tested on: Bacillus subtilis (168)
Procedure: as §1, §2, §3, §4, §5

## CC/C=C\C/C=C\C/C=C\CCCCCCCC(=O)[O-].CC/C=C\C/C=C\C/C=C\CCCCCCCC(=O)[O-].[Zn+2] [zinc linolenate]
[1]; zinc linolenate 2 μg/ml
  Bacterial growth: +
[1]; zinc linolenate 4 μg/ml
  Bacterial growth: +
[1]; zinc linolenate 8 μg/ml
  Bacterial growth: +
[1]; zinc linolenate 16 μg/ml
  Bacterial growth: +
[1]; zinc linolenate 32 μg/ml
  Bacterial growth: +
[1]; zinc linolenate 64 μg/ml
  Bacterial growth: +
[1]; zinc linolenate 128 μg/ml
  Bacterial growth: +
[2]; zinc linolenate 2 μg/ml
  Bacterial growth: +
[2]; zinc linolenate 4 μg/ml
  Bacterial growth: +
[2]; zinc linolenate 8 μg/ml
  Bacterial growth: +
[2]; zinc linolenate 16 μg/ml
  Bacterial growth: +
[2]; zinc linolenate 32 μg/ml
  Bacterial growth: +
[2]; zinc linolenate 64 μg/ml
  Bacterial growth: +
[2]; zinc linolenate 128 μg/ml
  Bacterial growth: +
[3]; zinc linolenate 2 μg/ml
  Bacterial growth: +
[3]; zinc linolenate 4 μg/ml
  Bacterial growth: +
[3]; zinc linolenate 8 μg/ml
  Bacterial growth: +
[3]; zinc linolenate 16 μg/ml
  Bacterial growth: +
[3]; zinc linolenate 32 μg/ml
  Bacterial growth: +
[3]; zinc linolenate 64 μg/ml
  Bacterial growth: +
[3]; zinc linolenate 128 μg/ml
  Bacterial growth: +
[4]; zinc linolenate 2 μg/ml
  Bacterial growth: +
[4]; zinc linolenate 4 μg/ml
  Bacterial growth: +
[4]; zinc linolenate 8 μg/ml
  Bacterial growth: +
[4]; zinc linolenate 16 μg/ml
  Bacterial growth: +
[4]; zinc linolenate 32 μg/ml
  Bacterial growth: +
[4]; zinc linolenate 64 μg/ml
  Bacterial growth: +
[4]; zinc linolenate 128 μg/ml
  Bacterial growth: −
[5]; zinc linolenate 2 μg/ml
  Bacterial growth: +
[5]; zinc linolenate 4 μg/ml
  Bacterial growth: +
[5]; zinc linolenate 8 μg/ml
  Bacterial growth: +
[5]; zinc linolenate 16 μg/ml
  Bacterial growth: +
[5]; zinc linolenate 32 μg/ml
  Bacterial growth: +
[5]; zinc linolenate 64 μg/ml
  Bacterial growth: +
[5]; zinc linolenate 128 μg/ml
  Bacterial growth: −
Listeria; zinc linolenate 2 μg/ml
  Bacterial growth: +
Listeria; zinc linolenate 4 μg/ml
  Bacterial growth: +
Listeria; zinc linolenate 8 μg/ml
  Bacterial growth: +
Listeria; zinc linolenate 16 μg/ml
  Bacterial growth: +
Listeria; zinc linolenate 32 μg/ml
  Bacterial growth: +
Listeria; zinc linolenate 64 μg/ml
  Bacterial growth: +
Listeria; zinc linolenate 128 μg/ml
  Bacterial growth: +
Morganella morganii; zinc linolenate 2 μg/ml
  Bacterial growth: +
Morganella morganii; zinc linolenate 4 μg/ml
  Bacterial growth: +
Morganella morganii; zinc linolenate 8 μg/ml
  Bacterial growth: +
Morganella morganii; zinc linolenate 16 μg/ml
  Bacterial growth: +
Morganella morganii; zinc linolenate 32 μg/ml
  Bacterial growth: +
Morganella morganii; zinc linolenate 64 μg/ml
  Bacterial growth: +
Morganella morganii; zinc linolenate 128 μg/ml
  Bacterial growth: −
[6]; zinc linolenate 2 μg/ml
  Bacterial growth: +
[6]; zinc linolenate 4 μg/ml
  Bacterial growth: +
[6]; zinc linolenate 8 μg/ml
  Bacterial growth: +
[6]; zinc linolenate 16 μg/ml
  Bacterial growth: +
[6]; zinc linolenate 32 μg/ml
  Bacterial growth: +
[6]; zinc linolenate 64 μg/ml
  Bacterial growth: +
[6]; zinc linolenate 128 μg/ml
  Bacterial growth: +
[7]; zinc linolenate 2 μg/ml
  Bacterial growth: +
[7]; zinc linolenate 4 μg/ml
  Bacterial growth: +
[7]; zinc linolenate 8 μg/ml
  Bacterial growth: +
[7]; zinc linolenate 16 μg/ml
  Bacterial growth: +
[7]; zinc linolenate 32 μg/ml
  Bacterial growth: +
[7]; zinc linolenate 64 μg/ml
  Bacterial growth: +
[7]; zinc linolenate 128 μg/ml
  Bacterial growth: +
[8]; zinc linolenate 2 μg/ml
  Bacterial growth: +
[8]; zinc linolenate 4 μg/ml
  Bacterial growth: +
[8]; zinc linolenate 8 μg/ml
  Bacterial growth: +
[8]; zinc linolenate 16 μg/ml
  Bacterial growth: +
[8]; zinc linolenate 32 μg/ml
  Bacterial growth: +
[8]; zinc linolenate 64 μg/ml
  Bacterial growth: +
[8]; zinc linolenate 128 μg/ml
  Bacterial growth: +
[9]; zinc linolenate 2 μg/ml
  Bacterial growth: +
[9]; zinc linolenate 4 μg/ml
  Bacterial growth: +
[9]; zinc linolenate 8 μg/ml
  Bacterial growth: +
[9]; zinc linolenate 16 μg/ml
  Bacterial growth: +
[9]; zinc linolenate 32 μg/ml
  Bacterial growth: +
[9]; zinc linolenate 64 μg/ml
  Bacterial growth: +
[9]; zinc linolenate 128 μg/ml
  Bacterial growth: +
[10]; zinc linolenate 2 μg/ml
  Bacterial growth: +
[10]; zinc linolenate 4 μg/ml
  Bacterial growth: +
[10]; zinc linolenate 8 μg/ml
  Bacterial growth: +
[10]; zinc linolenate 16 μg/ml
  Bacterial growth: +
[10]; zinc linolenate 32 μg/ml
  Bacterial growth: +
[10]; zinc linolenate 64 μg/ml
  Bacterial growth: +
[10]; zinc linolenate 128 μg/ml
  Bacterial growth: −
[11]; zinc linolenate 2 μg/ml
  Bacterial growth: +
[11]; zinc linolenate 4 μg/ml
  Bacterial growth: +
[11]; zinc linolenate 8 μg/ml
  Bacterial growth: +
[11]; zinc linolenate 16 μg/ml
  Bacterial growth: +
[11]; zinc linolenate 32 μg/ml
  Bacterial growth: +
[11]; zinc linolenate 64 μg/ml
  Bacterial growth: +
[11]; zinc linolenate 128 μg/ml
  Bacterial growth: +
Bacillus subtilis (168); zinc linolenate 2 μg/ml
  Bacterial growth: +
Bacillus subtilis (168); zinc linolenate 4 μg/ml
  Bacterial growth: +
Bacillus subtilis (168); zinc linolenate 8 μg/ml
  Bacterial growth: +
Bacillus subtilis (168); zinc linolenate 16 μg/ml
  Bacterial growth: +
Bacillus subtilis (168); zinc linolenate 32 μg/ml
  Bacterial growth: +
Bacillus subtilis (168); zinc linolenate 64 μg/ml
  Bacterial growth: +
Bacillus subtilis (168); zinc linolenate 128 μg/ml
  Bacterial growth: +

— US11203563B2, “Preparation of zinc linolenate, and application of zinc linolenate in preparing anti-helicobacter pylori drug” (NANJING MEDICAL UNIVERSITY, priority 2018, dated 2021)
